# Starred links: 1 amine or outer side, 2 acyl side, 3 side chain; linkers in the order of their positions; H or OH if unused. Positions of bridges follow the written chain, without caps; N, C: chain ends. Non-standard residues stand in square brackets, D forms with d. Residues, ends and D or L forms follow the SMILES beside them. *: point of attachment. hPhe(3-Cl-4-CF3) = N[C@@H](CCc1ccc(C(F)(F)F)c(Cl)c1)C(=O)O; hPhe(3-F,4-CF3) = N[C@@H](CCc1ccc(C(F)(F)F)c(F)c1)C(=O)O; X12 = CN([C@@H](Cc1ccc(C(F)(F)F)nc1)C(=O)[*:2])[*:1]; hPhe(4-CF3) = N[C@@H](CCc1ccc(C(F)(F)F)cc1)C(=O)O; NMePhe(4-Cl) = CN[C@@H](Cc1ccc(Cl)cc1)C(=O)O; Phe(3,5-F2) = N[C@@H](Cc1cc(F)cc(F)c1)C(=O)O; NMePhe(4-Me) = CN[C@@H](Cc1ccc(C)cc1)C(=O)O; NMedβ3hAla = C[C@H](CC(=O)[*:2])N(C)[*:1]; Phe(3-Cl) = N[C@@H](Cc1cccc(Cl)c1)C(=O)O; hPhe(4-F) = N[C@@H](CCc1ccc(F)cc1)C(=O)O; NMeGly(cPent) = CN[C@H](C(=O)O)C1CCCC1; Phe(3-I) = N[C@@H](Cc1cccc(I)c1)C(=O)O; X26 = O=C([C@@H]1CCC[C@H]1N[*:1])[*:2]; NMeCha = CN[C@@H](CC1CCCCC1)C(=O)O; NMeGly(cPr) = CN[C@H](C(=O)O)C1CC1; NMehLeu = CN[C@@H](CCC(C)C)C(=O)O; NMeChg = CN[C@H](C(=O)O)C1CCCCC1; NMeF = CN[C@@H](Cc1ccccc1)C(=O)O; NMeI = CC[C@H](C)[C@H](NC)C(=O)O; hPhe = N[C@@H](CCc1ccccc1)C(=O)O; N(CH2CH2)2CF2 = FC1(F)CCN(*)CC1; NMeD = CN[C@@H](CC(=O)O)C(=O)O; NMeL = CN[C@@H](CC(C)C)C(=O)O; NMeV = CN[C@H](C(=O)O)C(C)C; d(β3hA) = C[C@@H](N)CC(=O)O; NMeS = CN[C@@H](CO)C(=O)O; Pip = O=C(O)[C@@H]1CCCCN1; Morpholide = C1CN(*)CCO1; NMeA = CN[C@@H](C)C(=O)O; NMeAib = CNC(C)(C)C(=O)O; Piperidide = C1CCN(*)CC1; Pyrrolidide = C1CCN(*)C1; Ac5c = NC1(C(=O)O)CCCC1; Aze = O=C(O)[C@@H]1CCN1; Aib = CC(C)(N)C(=O)O; Isopentyl = CC(C)CC*; NEtG = CCNCC(=O)O; Sar = CNCC(=O)O; Propyl = CCC*
# Molecular target: T1, Kras and SOS1 (biotin-tagged human Kras loaded with GDP, His-tagged human SOS1) (Homo sapiens, UniProt P01116, G12D)
# T1 construct: made in house; host or cells: E. coli (stated for Kras only)
# T1 sequence (P01116 1-188 isoform P01116-2 G12D): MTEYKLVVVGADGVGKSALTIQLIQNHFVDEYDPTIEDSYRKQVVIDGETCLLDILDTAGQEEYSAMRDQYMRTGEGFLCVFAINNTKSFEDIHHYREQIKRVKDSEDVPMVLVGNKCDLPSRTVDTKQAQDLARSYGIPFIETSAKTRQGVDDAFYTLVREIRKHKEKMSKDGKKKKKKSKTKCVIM
# Assay: Protein-protein interaction inhibition between Kras and SOS1 (KrasGl2D-SOS PPI) using AlphaScreen
# Format: binding
# Conditions: AlphaScreen; biotin-tagged human Kras loaded with GDP, His-tagged human SOS1; read-out: KRAS G12D-SOS PPI IC50
# Method: Protein-Protein Interaction Inhibition Between Kras and SOS1 (KrasGl2D-SOS PPI) Using AlphaScreen
# Protein-protein interaction inhibition (PPI) between Kras and SOS1 was measured by energy transfer from nickel-conjugated donor beads to streptavidin-conjugated acceptor beads using biotin-tagged human Kras expressed in E. coli and loaded with GDP after purification and His-tagged human SOS1 enzyme. This measurement utilizes the phenomenon in which donor beads are irradiated with light at 680 nm, such that energy is transferred to acceptor beads through singlet oxygen and light at 520-620 nm is detected from the acceptor beads.
# Inhibition of binding between K-ras and SOS1 is known to inhibit signaling downstream of Kras.
row,SMILES,IC50
1,CC[C@H](C)[C@@H]1NC(=O)[C@H](CC(C)C)N(C)C(=O)C[C@@H](C(=O)N(C)C)N(C)C(=O)[C@H]([C@@H](C)CC)N(C)C(=O)[C@H](C(C)C)NC(=O)[C@H](C)N(C)C(=O)[C@H](CCc2ccc(C(F)(F)F)c(Cl)c2)NC(=O)CN(C)C(=O)[C@H](Cc2ccc(C)cc2)N(C)C(=O)[C@@H]2CCN2C(=O)[C@H](C)N(C)C1=O [Compound 4] ([NMeL]I[NMeA][Aze][NMePhe(4-Me)][Sar][hPhe(3-Cl-4-CF3)][NMeA]V[NMeI][NMeD]-NMe2; lactam N-11),13 nM
2,CC[C@H](C)[C@@H]1NC(=O)[C@H](CC(C)C)N(C)C(=O)C[C@@H](C(=O)N2CCCCC2)N(C)C(=O)[C@H](C2CCCCC2)N(C)C(=O)C2(CCCC2)NC(=O)[C@H](Cc2ccc(C(F)(F)F)nc2)N(C)C(=O)[C@H](CCc2ccc(C(F)(F)F)c(Cl)c2)NC(=O)CN(C)C(=O)[C@H](CC2CCCCC2)N(C)C(=O)[C@@H]2CCN2C(=O)CN(C)C1=O [Compound 6] ([NMeL]I[Sar][Aze][NMeCha][Sar][hPhe(3-Cl-4-CF3)][X12][Ac5c][NMeChg][NMeD]-Piperidide; lactam N-11),13 nM
3,COC[C@@H]1NC(=O)[C@H](CC(C)C)N(C)C(=O)C[C@@H](C(=O)N2CCCCC2)N(C)C(=O)[C@H](C(C)C)N(C)C(=O)C2(CCCC2)NC(=O)[C@@H]2CCCN2C(=O)[C@H](CCc2ccc(C(F)(F)F)c(Cl)c2)NC(=O)CN(C)C(=O)[C@H](CC2CCCCC2)N(C)C(=O)[C@@H]2CCN2C(=O)[C@H](C)N(C)C1=O [Compound 7] ([NMeL]S(Me)[NMeA][Aze][NMeCha][Sar][hPhe(3-Cl-4-CF3)]P[Ac5c][NMeV][NMeD]-Piperidide; lactam N-11),18 nM
4,"CCCOC[C@H]1C(=O)N(C)CC(=O)N[C@@H](CCc2ccc(C(F)(F)F)c(F)c2)C(=O)N2CCC[C@H]2C(=O)NC2(CCCC2)C(=O)N(C)[C@@H](C2CCCC2)C(=O)N(C)[C@H](C(=O)N2CCOCC2)CC(=O)N(C)[C@@H](CC(C)C)C(=O)N[C@@H]([C@@H](C)CC)C(=O)N(C)[C@@H](C)C(=O)N2CC[C@H]2C(=O)N1C [Compound 9, (5S,8S,11S,15S,18S,23aS,29S,35S,37aS)-8-((S)-sec-butyl)-18-cyclopentyl-29-(3-fluoro-4-(trifluoromethyl)phenethyl)-11-isobutyl-5,6,12,16,19,33,36-heptamethyl-15-(morpholine-4-carbonyl)-35-(propoxymethyl)docosahydro-2H,4H-spiro[azeto[2,1-u]pyrrolo[2,1-i][1,4,7,10,13,16,19,22,25,28,31]undecaazacyclotetratriacontine-21,1′-cyclopentan]-4,7,10,13,17,20,23,28,31,34,37(14H,22H)-undecaone] ([NMeL]I[NMeA][Aze][NMeS](Propyl)[Sar][hPhe(3-F,4-CF3)]P[Ac5c][NMeGly(cPent)][NMeD]-Morpholide; lactam N-11)",1.5 nM
5,CC[C@H](C)[C@@H]1NC(=O)[C@H](CC(C)C)N(C)C(=O)C[C@@H](C(=O)N2CCCCC2)N(C)C(=O)[C@H](CC(C)C)NC(=O)C(C)(C)N(C)C(=O)[C@H](CCc2ccccc2)NC(=O)[C@H](Cc2cccc(I)c2)NC(=O)CN(C)C(=O)[C@H](Cc2ccc(C)cc2)N(C)C(=O)CN(C)C(=O)CN(C)C1=O [Compound 13] ([NMeL]I[Sar][Sar][NMePhe(4-Me)][Sar][Phe(3-I)][hPhe][NMeAib]L[NMeD]-Piperidide; lactam N-11),38 nM
6,CC[C@H](C)[C@@H]1NC(=O)[C@H](CC(C)C)N(C)C(=O)C[C@@H](C)NC(=O)[C@H](C2CC2)N(C)C(=O)C2(CCCC2)NC(=O)[C@@H]2CCCN2C(=O)[C@H](CCc2ccc(C(F)(F)F)c(Cl)c2)NC(=O)CN(C)C(=O)[C@H](CC2CCCCC2)N(C)C(=O)CN(C)C(=O)CN(C)C1=O [Compound 14] (cyclo([Ac5c][NMeGly(cPr)][d(β3hA)][NMeL]I[Sar][Sar][NMeCha][Sar][hPhe(3-Cl-4-CF3)]P)),110 nM
7,CC[C@H](C)[C@@H]1NC(=O)[C@H](C)N(C)C(=O)C[C@@H](C)NC(=O)[C@H](CC(C)C)N(C)C(=O)[C@H](Cc2ccccc2)N(C)C(=O)[C@@H]2CCCN2C(=O)[C@H](CCc2ccc(C(F)(F)F)cc2)NC(=O)CN(C)C(=O)[C@H]([C@@H](C)CC)N(C)C(=O)CN(C)C(=O)CN(C)C1=O [Compound 18] (cyclo(I[Sar][Sar][NMeI][Sar][hPhe(4-CF3)]P[NMeF][NMeL][d(β3hA)][NMeA])),230 nM
8,"CC[C@H](C)[C@@H]1NC(=O)[C@H](C)N(C)C(=O)C[C@@H](C(=O)N2CCCC2)NC(=O)[C@H](C(C)C)N(C)C(=O)[C@H](Cc2ccccc2)N(C)C(=O)[C@H](Cc2ccccc2)NC(=O)[C@H](Cc2cc(F)cc(F)c2)NC(=O)CN(C)C(=O)[C@H](Cc2ccc(Cl)cc2)N(C)C(=O)CN(C)C(=O)CN(C)C1=O [Compound 21] ([NMeA]I[Sar][Sar][NMePhe(4-Cl)][Sar][Phe(3,5-F2)]F[NMeF][NMeV]D-Pyrrolidide; lactam N-11)",250 nM
9,CC[C@H](C)[C@@H]1NC(=O)[C@H](CC(C)C)N(C)C(=O)C[C@@H](C)N(C)C(=O)[C@H](CCC(C)C)N(C)C(=O)C2(CCCC2)NC(=O)[C@@H]2CCCN2C(=O)[C@H](CCc2ccc(C(F)(F)F)c(Cl)c2)NC(=O)CN(C)C(=O)[C@H](CC2CCCCC2)N(C)C(=O)CN(C)C(=O)CN(C)C1=O [Compound 22] (cyclo([Ac5c][NMehLeu][NMedβ3hAla][NMeL]I[Sar][Sar][NMeCha][Sar][hPhe(3-Cl-4-CF3)]P)),110 nM
10,CC[C@H](C)[C@@H]1NC(=O)[C@H](CC(C)C)N(C)C(=O)C[C@@H](C(=O)N(C)C)N(C)C(=O)[C@H](C2CCCC2)N(C)C(=O)[C@H](C(C)C)NC(=O)[C@@H](C)NC(=O)[C@H](CCc2ccc(C(F)(F)F)c(Cl)c2)NC(=O)CN(C)C(=O)[C@H](CC2CCCCC2)N(C)C(=O)[C@@H]2CCN2C(=O)[C@H](C)N(C)C1=O [Compound 24] ([NMeL]I[NMeA][Aze][NMeCha][Sar][hPhe(3-Cl-4-CF3)][dA]V[NMeGly(cPent)][NMeD]-NMe2; lactam N-11),25 nM
11,CC[C@H](C)[C@@H]1NC(=O)[C@H](C)N(C)C(=O)[C@@H]2CCC[C@H]2NC(=O)[C@H](CC(C)C)N(C)C(=O)[C@H](Cc2ccccc2)N(C)C(=O)[C@@H]2CCCN2C(=O)[C@H](CCc2ccc(C(F)(F)F)cc2)NC(=O)CN(C)C(=O)[C@H](Cc2ccc(Cl)cc2)N(C)C(=O)CN(C)C(=O)CN(C)C1=O [Compound 25] (cyclo(I[Sar][Sar][NMePhe(4-Cl)][Sar][hPhe(4-CF3)]P[NMeF][NMeL][X26][NMeA])),150 nM
12,CC[C@H](C)[C@@H]1NC(=O)[C@H](CC(C)C)N(C)C(=O)C[C@@H](C(=O)N2CCCC2)N(C)C(=O)[C@H](C2CCCC2)N(C)C(=O)C2(CCCC2)NC(=O)[C@H](CC(=O)N2CCC(F)(F)CC2)N(C)C(=O)[C@H](CCc2ccc(C(F)(F)F)c(Cl)c2)NC(=O)CN(C)C(=O)[C@H](CC2CCCCC2)N(C)C(=O)[C@@H]2CCN2C(=O)[C@H](C)N(C)C1=O [Compound 26] ([NMeL]I[NMeA][Aze][NMeCha][Sar][hPhe(3-Cl-4-CF3)][NMeD](N(CH2CH2)2CF2)[Ac5c][NMeGly(cPent)][NMeD]-Pyrrolidide; lactam N-11),4.3 nM
13,"CC[C@H](C)[C@@H]1NC(=O)[C@H](CC(C)C)N(C)C(=O)C[C@@H](C(=O)N(C)C)N(C)C(=O)[C@H]([C@@H](C)CC)N(C)C(=O)C2(CCCC2)NC(=O)[C@H](COCCC(C)C)N(C)C(=O)[C@H](CCc2ccc(C(F)(F)F)c(Cl)c2)NC(=O)CN(C)C(=O)[C@H](Cc2ccc(C)cc2)N(C)C(=O)[C@@H]2CCN2C(=O)[C@H](C)N(C)C1=O [Compound 27, (3S,6S,9S,13S,16S,22S,25S,31S,34S)-25-[2-[3-chloro-4-(trifluoromethyl)phenyl]ethyl]-9-isobutyl-22-(isopentyloxymethyl)-N,N,3,4,10,14,17,23,29,32-decamethyl-6,16-bis[(1S)-1-methylpropyl]-2,5,8,11,15,18,21,24,27,30,33-undecaoxo-31-(p-tolylmethyl)spiro[1,4,7,10,14,17,20,23,26,29,32-undecazabicyclo[32.2.0]hexatriacontane-19,1′-cyclopentane]-13-carboxamide] ([NMeL]I[NMeA][Aze][NMePhe(4-Me)][Sar][hPhe(3-Cl-4-CF3)][NMeS](Isopentyl)[Ac5c][NMeI][NMeD]-NMe2; lactam N-11)",3.3 nM
14,CC[C@H](C)[C@@H]1NC(=O)[C@H](C)N(C)C(=O)C[C@@H](C)NC(=O)[C@H](CC(C)C)N(C)C(=O)C(C)(C)NC(=O)[C@H](CC(C)C)N(C)C(=O)[C@H](CCc2ccc(F)cc2)NC(=O)CN(C)C(=O)[C@H](Cc2ccc(Cl)cc2)N(C)C(=O)CN(C)C(=O)CN(C)C1=O [Compound 28] (cyclo([Aib][NMeL][d(β3hA)][NMeA]I[Sar][Sar][NMePhe(4-Cl)][Sar][hPhe(4-F)][NMeL])),160 nM
15,CC[C@H](C)[C@@H]1NC(=O)[C@H](C)N(C)C(=O)C[C@@H](C(=O)N2CCCC2)NC(=O)[C@H](C(C)C)N(C)C(=O)[C@H](Cc2ccccc2)N(C)C(=O)[C@H](Cc2ccccc2)NC(=O)[C@H](Cc2cccc(Cl)c2)NC(=O)CN(CC)C(=O)[C@H](Cc2ccc(Cl)cc2)N(C)C(=O)CN(C)C(=O)CN(C)C1=O [Compound 29] ([NMeA]I[Sar][Sar][NMePhe(4-Cl)][NEtG][Phe(3-Cl)]F[NMeF][NMeV]D-Pyrrolidide; lactam N-11),320 nM
16,CC[C@H](C)[C@@H]1NC(=O)[C@@H]2CCCCN2C(=O)C[C@@H](C)NC(=O)[C@H](CC(C)C)N(C)C(=O)C(C)(C)NC(=O)[C@H](CC(C)C)N(C)C(=O)[C@H](CCc2ccc(C(F)(F)F)cc2)NC(=O)CN(C)C(=O)[C@H](CC2CCCCC2)N(C)C(=O)CN(C)C(=O)CN(C)C1=O [Compound 31] (cyclo([Aib][NMeL][d(β3hA)][Pip]I[Sar][Sar][NMeCha][Sar][hPhe(4-CF3)][NMeL])),380 nM
